The values below come from publication PMC6884575, “Suppression of FOXM1 activities and breast cancer growth in vitro and in vivo by a new class of compounds” (NPJ Breast Cancer, 2019).

Broadly, the AUC is the area under the concentration-time curve, a measure of exposure. Broadly, the Cmax is the peak of the concentration-time curve. In general, half-life refers to the time in which the quantity being followed falls by half. In general, Ki refers to a measure of affinity in units of concentration, obtained from inhibition or displacement.

The test system of data set [1] is tamoxifen-resistant MCF7 breast cancer cells. Description: Proliferation of tamoxifen-resistant MCF7 cells. It is filed as cell-based, human. Conditions: 6 days, cell numbers. How it is done:
resistant MCF7 cells. Cells were treated with NB-73 or trans-hydroxytamoxifen (OH-
Tam) for 6 days and cell numbers were monitored. Values are mean ± SD of three
(1 picture or pasted object on this page, not shown here)

Data set [2] concerns DT22 cells and MCF7 cells. Description: Cell proliferation in DT22 and MCF7 cells. Conditions: 3 days. It is filed as cell-based, human. As for the experimental part: WST-1 assay (Roche, Basel, Switzerland) was used to quantify cell viability as described.[38] […] All assays were performed in triplicate and analyzed using Graph Pad Prism 8.0.
Data set [3] can be described thus: Pharmacokinetics in mice after single s.c. or oral dose. The format is in vivo, female CD1 mice. Conditions: for AUC / Cmax / half-life: female, CD1, mouse, single dose, plasma.
Protocol: The pharmacokinetics of compounds were monitored after single dose administration into female CD1 mice (7–9 weeks of age) via s.c. injection or oral gavage, as described.[39] For s.c. injection, each compound was dissolved in DMSO and then mixed with corn oil for a total injection volume of 100 μL (10% DSMO + 90% corn oil) per mouse. For oral gavage, compounds were administered in a 200 µL formulation of 9/0.5/0.5/90 parts of PEG400/Tween80/Povidone/0.5% Carboxymethylcellulose in DI water. […] Compounds were quantified by LC-MS/MS at the University of Illinois Metabolomics Core Facility. The data were fitted to a non-compartment model.
Data set [4] concerns DT22 breast tumor xenografts. Description: DT22 human breast tumor xenograft growth in NSG mice. The format is in vivo. Particulars: for tumor growth: DT22 tumors, NSG mice, s.c., 20 mg/kg every other day for 10 days then 10 mg/kg every other day; for tumor growth in vivo: low doses (2–20 mg/kg) s.c. daily or every other day; for animal body weight / growth of tumor xenografts: low doses s.c.: NB-115 2 or 6 mg/kg daily, NB-63 20 mg/kg daily then 10 mg/kg every other day from day 20. As for the experimental part:
For examination of the effects of compounds on breast tumor growth suppression, intact female NOD/SCID-gamma (NSG) mice were used as detailed previously.[39] DT-22 breast cancer cells (1 × 10^6 cells/mouse) were injected s.c. into the right axial mammary gland. Mice received s.c. injection or oral gavage daily or every second or third day as indicated, with vehicle or treatment compound, and tumor volume (length × width^2/2) was monitored over time.
A general note: In xenograft studies the graft and the host belong to different species.

For another data set, the target named is T1, FOXM1 (Homo sapiens, UniProt Q08050).
T1 sequence (Q08050 1-763): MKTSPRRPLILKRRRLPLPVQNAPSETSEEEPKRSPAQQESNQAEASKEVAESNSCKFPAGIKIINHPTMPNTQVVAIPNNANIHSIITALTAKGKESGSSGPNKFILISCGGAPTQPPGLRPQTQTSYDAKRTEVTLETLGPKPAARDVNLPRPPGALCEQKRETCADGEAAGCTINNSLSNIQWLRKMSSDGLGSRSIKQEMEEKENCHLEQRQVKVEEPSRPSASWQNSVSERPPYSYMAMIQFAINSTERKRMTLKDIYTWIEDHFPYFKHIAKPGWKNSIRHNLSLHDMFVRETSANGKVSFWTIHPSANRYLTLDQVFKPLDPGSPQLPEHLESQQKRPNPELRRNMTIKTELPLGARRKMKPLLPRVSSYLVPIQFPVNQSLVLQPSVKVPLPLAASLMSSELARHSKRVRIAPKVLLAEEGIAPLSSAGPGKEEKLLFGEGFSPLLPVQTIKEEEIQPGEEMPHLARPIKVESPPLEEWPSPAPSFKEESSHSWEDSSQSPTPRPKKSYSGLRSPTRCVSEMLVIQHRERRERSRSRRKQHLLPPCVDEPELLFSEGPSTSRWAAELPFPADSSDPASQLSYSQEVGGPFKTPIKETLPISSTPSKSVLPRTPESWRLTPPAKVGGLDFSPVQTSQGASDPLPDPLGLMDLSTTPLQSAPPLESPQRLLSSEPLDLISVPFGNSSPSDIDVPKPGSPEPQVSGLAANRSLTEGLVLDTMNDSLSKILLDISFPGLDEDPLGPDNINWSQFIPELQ
The data set is described as follows: tr-FRET competitive binding assay with Fl-NB-72 probe. Particulars: calculated from IC50 values; Supplementary Table 1; read-out: Ki, affinity for binding to FOXM1 protein. On the set-up: we attached a terbium donor to purified, full length FOXM1 through a streptavidin-biotin linker. As for the experimental part: Competitive binding assays of compound binding to FOXM1 by tr-FRET were done in FRET buffer (20 mM Tris, pH 7.5, 50 mM NaCl, 0.01% NP-40 detergent, 10% glycerol) with 0.3 mg/ml ovalbumin and 0.1 mM butylated hydroxy-anisole added fresh daily. Solutions of the protein, fluorescent probe and compound dilutions were prepared at 3× concentrations, the final dilution taking place as they were mixed together in equal portions on the microtiter plate.
Final concentrations were 10^−5 M to 10^−9 M, with the last point being buffer only, no compound. Fluorescein-NB-72 (Fl-NB- 72) was prepared at 1 mM in DMF and stored at −20 °C. It was diluted into FRET buffer to give 100 nM in the assay. Incubations were done in duplicate on black Molecular Devices 96-well microtiter plates. 5 μl of Fl-NB-72 and 5 μl of the compound dilutions, were mixed together on the plate. To this was added 5 µl biotin-FoxM1 and incubated in the dark at room temperature, for 1 h. […] To correct for background signals, biotin-FOXM1 was omitted, and diffusion-enhanced FRET incubations were done in duplicate on black Molecular Devices 96-well microtiter plates. Five microliter of Fl-NB-72 and 5 μl of the compound solutions were mixed together and then 5 µl of FRET buffer plus SaTb was added, mixed and incubated in the dark at room temperature, for 1 h. The tr-FRET signals measured as above were subtracted as a background from the first incubations that contained biotin-FOXM1. Graphs were prepared using Graph Pad/Prism 4.

Data set [5] has as its system FOXM1 target gene expression in MCF7 cells. Description: FOXM1 target gene expression by qRT-PCR. Particulars: MCF7, 24 h, compound at its IC50 for proliferation. It is filed as cell-based, human. How it is done: Total RNA was isolated using TRIzol (Invitrogen) and reverse transcribed using […] reverse transcriptase (New England BioLabs). Real-time PCR was performed using SYBRgreen PCR Master Mix (Quantabio) as described.[15] Relative mRNA levels of genes were normalized to the housekeeping gene 36B4, and fold-change calculated relative to the vehicle treated samples. Results are the average ± SD from at least two independent experiments carried out in triplicate. Primer sequences for the genes studied were obtained from the Harvard Primer Bank. Sequences are available on their website.
On the technique in general: In qPCR the cycle at which signal appears reflects the starting amount.

With `CC/C(=C(\c1ccc(O)cc1)c1ccc(OCCN(C)C)cc1)c1ccccc1` [trans-hydroxytamoxifen, reference compound], the “proliferation of tamoxifen-resistant MCF7 cells” value in data set [1] was “weakly stimulated”.
Take `C[N+]1(CCCCCCOc2ccc(C(=C3C4CC5CC(C4)CC3C5)c3ccc(OCCCCCC[N+]4(C)CCCC4)cc3)cc2)CCCC1` [NB-68]: in data set [2], the “relative potency in suppressing cell proliferation” value is reported as “potencies very similar to those of their parent amine compounds”. In addition, the “blood levels of compound” value in data set [3] (after oral administration) was “only very low levels”. The “blood levels of compound” value in data set [3] (after s.c. injection) is “very high blood levels”. In data set [3] (oral, 60 mg/kg), this molecule had an AUC of 0.29 µM·h, a Cmax of 71 nM and a half-life of 372 min. In data set [3] (sc, 60 mg/kg), the AUC worked out at 127 µM·h, the Cmax turned out to be 7120 nM and the half-life was 1420 min. For the same molecule, in data set [4], the tumor growth entry was “greatly suppress tumor growth” and the “tumor growth in vivo” value was “greatly suppress tumor growth”. For the same molecule, the inhibition constant (Ki) at FOXM1 is 51 nM.
For `CC[N+](C)(CC)CCCCCCOc1ccc(C(=C2C3CC4CC(C3)CC2C4)c2ccc(OCCCCCC[N+](C)(CC)CC)cc2)cc1` [NB-115], in data set [5], the “expression of ATF3, a gene suppressed by FOXM1” value is on record as “increased expression of ATF3” and the “expression of FOXM1 stimulated target genes (FOXM1C, AURKB, CCNB1, PLK1)” value is reported as “significantly reduced the expression”. Also, in data set [3] (oral, 40 mg/kg), the Cmax was determined as 100 nM. In data set [3] (sc, 40 mg/kg), this molecule showed an AUC of 746 µM·h, a Cmax of 34700 nM and a half-life of 2320 min. In addition, in data set [4], the “tumor growth in vivo” value is on record as “greatly suppress tumor growth”, the animal body weight result was “little impact on animal body weight” and the “growth of tumor xenografts” value is on record as “effective in suppressing the growth of tumor xenografts”.
On to `C[N+]1(CCCCCCOc2ccc(C(c3ccc(Cl)cc3)=C3C4C[C@H]5C[C@@H](C4)C[C@H]3C5)cc2)CCCC1` [NB-63], for which the “relative potency in suppressing cell proliferation” value in data set [2] is given as “potencies very similar to those of their parent amine compounds”. Moreover, in data set [3] (after oral administration), the “blood levels of compound” value is “only very low levels”. The “blood levels of compound” value in data set [3] (after s.c. injection) is reported as “very high blood levels”. In data set [3] (oral, 40 mg/kg), this molecule had an AUC of 1.67 µM·h, a peak concentration (Cmax) of 400 nM and a half-life of 348 min. Further, in data set [3] (sc, 40 mg/kg), the area under the curve (AUC) stood at 158 µM·h, the peak concentration (Cmax) turned out to be 5010 nM and the half-life is 1890 min. Moreover, in data set [4], the “tumor growth in vivo” value is listed as “greatly suppress tumor growth”, the animal body weight result is listed as “little impact on animal body weight” and the “growth of tumor xenografts” value is “effective in suppressing the growth of tumor xenografts”.
In data set [3] (oral, 60 mg/kg), `c1cc(C(c2ccc(OCCCCCCN3CCCCC3)cc2)=C2[C@H]3C[C@@H]4C[C@@H](C[C@H]2C4)C3)ccc1OCCCCCCN1CCCCC1` [NB-70] showed an exposure (AUC) of 8.32 µM·h, a Cmax of 220 nM and a half-life of 3070 min. Moreover, in data set [3] (sc, 60 mg/kg), the AUC was 10.2 µM·h, the peak concentration (Cmax) worked out at 270 nM and the half-life is 13300 min.
For `c1cc(C(=C2C3CC4CC(C3)CC2C4)c2ccc(OCCCCCCN3CCCCCC3)cc2)ccc1OCCCCCCN1CCCCCC1` [NB-72], in data set [3] (oral, 60 mg/kg), the AUC worked out at 11.3 µM·h, the Cmax is 320 nM and the half-life was 3640 min. In data set [3] (sc, 60 mg/kg), this molecule gave an area under the curve (AUC) of 15.9 µM·h, a Cmax of 370 nM and a half-life of 18100 min.
For the molecule `c1cc(C(=C2C3CC4CC(C3)CC2C4)c2ccc(OCCCCCCN3CCCC3)cc2)ccc1OCCCCCCN1CCCC1` [NB-65], the AUC was 3.23 µM·h in data set [3] (oral, 60 mg/kg) and 14.8 µM·h in data set [3] (sc, 60 mg/kg). The Cmax in data set [3] (oral, 60 mg/kg) was 80 nM; in data set [3] (sc, 60 mg/kg) it was 580 nM. For the same molecule, the Ki at FOXM1 was 190 nM.
As to `C[N+]1(CCCCCCOc2ccc(C(=C3C4CC5CC(C4)CC3C5)c3ccc(OCCCCCC[N+]4(C)CCCCC4)cc3)cc2)CCCCC1` [NB-71], the “blood levels of compound” value in data set [3] (after oral administration) was “only very low levels”. Also, the “blood levels of compound” value in data set [3] (after s.c. injection) is “very high blood levels”. Also, in data set [3] (oral, 60 mg/kg), the AUC is 0.08 µM·h and the Cmax was 30 nM. In data set [3] (sc, 60 mg/kg), this molecule gave an AUC of 198 µM·h, a Cmax of 9520 nM and a half-life of 1990 min. In data set [4], the tumor growth result is “greatly suppress tumor growth” and the “tumor growth in vivo” value was “greatly suppress tumor growth”.
Regarding `CCN(CC)CCCCCCOc1ccc(C(c2ccc(OCCCCCCN(CC)CC)cc2)=C2[C@H]3C[C@@H]4C[C@@H](C[C@H]2C4)C3)cc1` [NB-51], in data set [3] (oral, 40 mg/kg), the area under the curve (AUC) was 1.81 µM·h, the Cmax was found to be 110 nM and the half-life was 1210 min. In data set [3] (sc, 20 mg/kg), this molecule showed an AUC of 4.73 µM·h, a peak concentration (Cmax) of 180 nM and a half-life of 3710 min. On FOXM1, the Ki was 130 nM.
